# Measured values from patent publication US6514954B1, “Pesticidal compositions” (priority 1997, dated 2003).
# System: Myzus persicae
# Assay: Example B6: action against Myzus persicae (leaf circle bioassay, sprayed Capsicum plants)
# Format: in vivo
# Conditions: 96 h, read-out: Action % (mortality of nymphs)
# Source text: A synergistic effect is always present if the action EA of the combination of an active compound of the formula (A) with one of the active compounds (I) to (XXXI) is greater than the sum of the action of the active compounds applied individually:
# However, the pesticidal action EA to be expected for a given combination of two pesticides can also be calculated as follows (cf. COLBY, S. R., “Calculating synergistic and antagonistic response of herbicide combinations”, Weeds 15, Pages 20-22, 1967): [formula]
# X=Percent mortality on treatment with the compound of the formula (A) at a rate of application of p kg per hectare compared with the untreated control (=0%).
# Y=Percent mortality on treatment with a compound (I) to (XXXI) at a rate of application of q kg per hectare compared with the untreated control.
# EA=Expected pesticidal action (percent mortality compared with the untreated control) after treatment with the compound of the formula (A) and a compound (I) to (XXXI) at a rate of application of p+q kg of active compound per hectare.
# If the action actually observed is greater than the expected value EA, synergism exists.
# Action Against Myzus persicae
# Capsicum plants (Capsicum annuum L.) 6 weeks old are sprayed with an aqueous emulsion spray liquor which comprises the individual compounds and mixtures according to the following table. The plants were placed in a greenhouse until determination of the activity.
# The activity against Myzus persicae was measured in bioassays. 2-4 hours after application, circles of leaf are stamped out, placed with the upper side down on agar in Petri dishes and infested with an M. persicae mixed population consisting of 40-50 non-synchronous individuals. A total of 9 circles of leaf per concentration are used. The Petri dishes are covered with a cotton wool filter, closed with a plastic lid and placed in a climatically controlled chamber for plants. One day after infestation, the circles of leaf are cleaned of adults, skins and nymphs, so that only 25-40 nymphs laid overnight remain per circle of leaf. Four days after infestation, the mortality is determined by counting the dead and living nymphs. The tests are carried out 3 times. The results shown in the table are the average values of the tests.
compound,measurement,setting,value
"CC1(C)C(C=C(Cl)Cl)C1C(=O)OC(C#N)c1cccc(Oc2ccccc2)c1 (racemic) [Cypermethrin high-cis, (RS)-α-cyano-3-phenoxybenzyl (1RS)-cis-trans-3-(2,2-dichlorvinyl)-1,1-dimethylcyclo-propanecarboxylate]",mortality at 600 ppm,"Conc. 600 ppm, four days after infestation, average of 3 tests",8.2%
"CN1COCN(Cc2cnc(Cl)s2)C1=N[N+](=O)[O-] [A.5, 5-(2-chlorothiazol-5-ylmethyl)-3-methyl-4-nitroimino-perhydro-1,3,5-oxadiazine]",mortality at 0.1 ppm,"Conc. 0.1 ppm, four days after infestation, average of 3 tests",5.9%
same,mortality at 0.2 ppm,"Conc. 0.2 ppm, four days after infestation, average of 3 tests",35%
"CCCSP(=O)(OCC)Oc1ccc(Br)cc1Cl (centres unmarked) [Profenofos, O-4-bromo-2-chlorophenyl O-ethyl S-propyl phosphorothioate]",mortality at 35 ppm,,12.3%
"CC1=NNC(=O)N(N=Cc2cccnc2)C1 [Pymetrozine, 2,3,4,5-tetrahydro-3-oxo-4-[(pyridin-3-yl)-methyleneamino]-6-methyl-1,2,4-triazine]",mortality at 0.3 ppm,"Conc. 0.3 ppm, four days after infestation, average of 3 tests",38.4%
